Test results: ChEMBL document CHEMBL1201862, “PubChem BioAssay data set” (2004)
Active and inactive are the calls of the source.

Legend:
[1] = target: Glyceraldehyde-3-phosphate dehydrogenase (Homo sapiens, UniProt P04406)
[2] = target: T1, Bcl-2-related protein A1 (Mus musculus, UniProt Q07440); experiment: small-molecule antagonists of Bfl-1/BH3 interaction – biochemical, TR-FRET, mouse Bfl-1, confirmation (AID 621);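 also: TR-FRET binding of GST-Bfl-1 to FITC-labelled Bid peptide via terbium antibody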
T1 sequence (Q07440 whole entry): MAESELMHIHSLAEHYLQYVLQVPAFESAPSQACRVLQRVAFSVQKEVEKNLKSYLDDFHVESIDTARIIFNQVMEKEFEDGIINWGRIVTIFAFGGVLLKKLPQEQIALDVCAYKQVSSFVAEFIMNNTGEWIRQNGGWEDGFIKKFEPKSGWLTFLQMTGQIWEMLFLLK

[3] = target: T1, Bcl-2-related protein A1; experiment: Bfl-1 binding inhibitors, SAR follow-up, biochemical, fluorescence polarization (AID 1070)
[4] = cells
[5] = Trypanosoma cruzi growth suppression in host cells – NIH3T3 host cells, beta-gal luminescence, confirmation (AID 2044); type: functional, cell-based;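 also: intracellular parasites grown in NIH/3T3 mouse fibroblasts as host cells; luminescent beta-galactosidase reporter signal from transgenic T. cruzi replicating inside host cells; inhibitors lower the luminescence signal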
[6] = NIH3T3 cell viability loss – ATP luminescence, mouse fibroblasts, counter-screen, dose response (AID 2010); type: functional, cell-based;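 also: cells exposed to compound for about 90 hours before reading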
[7] = target: T2, Calpain-2 catalytic subunit (Sus scrofa, UniProt P43367); experiment: m-calpain protease blockers, concentration series – biochemical, fluorogenic peptide substrate, dose response (AID 1420); type: functional
T2 sequence (P43367 whole entry): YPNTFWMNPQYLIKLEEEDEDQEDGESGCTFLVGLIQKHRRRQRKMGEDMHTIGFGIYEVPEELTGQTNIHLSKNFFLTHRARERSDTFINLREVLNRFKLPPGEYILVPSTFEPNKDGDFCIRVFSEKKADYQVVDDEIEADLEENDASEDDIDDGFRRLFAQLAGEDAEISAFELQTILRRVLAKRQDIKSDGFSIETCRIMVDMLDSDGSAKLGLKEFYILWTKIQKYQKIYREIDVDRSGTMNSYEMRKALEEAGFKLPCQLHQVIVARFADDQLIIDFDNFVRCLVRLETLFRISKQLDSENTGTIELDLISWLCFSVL

[8] = target: T3, Microphthalmia-associated transcription factor (Homo sapiens, UniProt O75030); experiment: reducers of TRPM1 reporter luminescence, concentration series – cell-based, SK-MEL-5, cherry-picked, set 3, MITF inhibitor project, dose response (AID 493073); type: functional;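 also: SK-MEL-5 melanoma cells with luciferase driven by the MITF target TRPM1 promoter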
T3 sequence (O75030 whole entry): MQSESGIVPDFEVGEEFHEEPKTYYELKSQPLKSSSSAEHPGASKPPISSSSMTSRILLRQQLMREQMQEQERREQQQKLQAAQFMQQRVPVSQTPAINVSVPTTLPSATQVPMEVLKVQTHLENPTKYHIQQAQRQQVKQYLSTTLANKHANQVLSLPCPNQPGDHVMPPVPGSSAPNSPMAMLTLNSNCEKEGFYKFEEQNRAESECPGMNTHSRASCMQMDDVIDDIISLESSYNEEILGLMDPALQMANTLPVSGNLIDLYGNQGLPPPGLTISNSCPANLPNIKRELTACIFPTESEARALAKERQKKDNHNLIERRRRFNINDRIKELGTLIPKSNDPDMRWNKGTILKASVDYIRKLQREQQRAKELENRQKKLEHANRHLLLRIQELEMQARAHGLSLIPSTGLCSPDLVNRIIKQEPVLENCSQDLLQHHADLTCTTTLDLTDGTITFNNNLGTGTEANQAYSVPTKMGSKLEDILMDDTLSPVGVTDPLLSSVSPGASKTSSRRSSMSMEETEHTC

[9] = blockade of melanocortin 4 receptor signaling – cell-based, plate reader, cherry pick, counter-screen for LGR2 antagonist project, dose response (AID 743444); type: functional;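 also: transfected HEK 293 cells stimulated with alpha-MSH peptide; potency of inhibitors of the alpha-MSH evoked signal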
[10] = system: Streptococcus; experiment: GAS UMAA2166 growth inhibition – luminescence, BacTiterGlo, counter-screen for streptokinase expression inhibitor project, dose response (AID 1915); type: functional, organism-based;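 also: potency for reduction of bacterial viability or growth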
[11] = blockers of bursicon-stimulated LGR2 cAMP reporter – cell-based, HEK293, CRE-luciferase reporter, cherry pick, set 2, dose response (AID 743343); type: functional;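 also: transfected cells were stimulated with diluted bursicon conditioned medium after compound addition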
[12] = target: T4, Streptokinase A (Streptococcus pyogenes serotype M1, UniProt P10520); experiment: viability-normalized secreted streptokinase activity reduction – plasminogen activation absorbance, OD405, dose response (AID 1914); type: functional, Streptococcus pyogenes M1 GAS;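 also: secreted streptokinase activity via plasminogen activation per viability signal from cell pellet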
T4 sequence (P10520 whole entry): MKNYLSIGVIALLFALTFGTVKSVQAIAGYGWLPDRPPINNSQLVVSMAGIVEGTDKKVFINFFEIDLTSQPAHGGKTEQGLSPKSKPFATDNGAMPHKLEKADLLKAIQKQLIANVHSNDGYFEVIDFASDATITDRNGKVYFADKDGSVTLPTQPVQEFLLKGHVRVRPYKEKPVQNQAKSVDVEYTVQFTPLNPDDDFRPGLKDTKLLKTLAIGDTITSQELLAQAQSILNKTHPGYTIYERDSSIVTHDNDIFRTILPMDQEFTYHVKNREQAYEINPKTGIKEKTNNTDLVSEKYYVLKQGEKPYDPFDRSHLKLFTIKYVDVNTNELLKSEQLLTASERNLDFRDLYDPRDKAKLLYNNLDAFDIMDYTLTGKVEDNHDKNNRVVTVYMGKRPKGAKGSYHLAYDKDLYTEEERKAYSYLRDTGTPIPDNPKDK

[13] = system: Streptococcus sp. 'group A'; experiment: Streptococcus pyogenes SK(-)GAS viability under kanamycin – luminescence, BacTiterGlo, confirmation, counter-screen for streptokinase expression inhibitor project, dose response (AID 1900); type: functional, organism-based
[14] = target: Induced myeloid leukemia cell differentiation protein Mcl-1 (Homo sapiens, UniProt Q07820); type: functional
[15] = target: T5, Short transient receptor potential channel 4 (Mus musculus, UniProt Q9QUQ5); experiment: calcium entry via TRPC4 opening agents – cell-based, HEK293 TRPC4/mu-opioid, Fluo-4 calcium, dose response (AID 434937); type: functional
T5 sequence (Q9QUQ5 whole entry): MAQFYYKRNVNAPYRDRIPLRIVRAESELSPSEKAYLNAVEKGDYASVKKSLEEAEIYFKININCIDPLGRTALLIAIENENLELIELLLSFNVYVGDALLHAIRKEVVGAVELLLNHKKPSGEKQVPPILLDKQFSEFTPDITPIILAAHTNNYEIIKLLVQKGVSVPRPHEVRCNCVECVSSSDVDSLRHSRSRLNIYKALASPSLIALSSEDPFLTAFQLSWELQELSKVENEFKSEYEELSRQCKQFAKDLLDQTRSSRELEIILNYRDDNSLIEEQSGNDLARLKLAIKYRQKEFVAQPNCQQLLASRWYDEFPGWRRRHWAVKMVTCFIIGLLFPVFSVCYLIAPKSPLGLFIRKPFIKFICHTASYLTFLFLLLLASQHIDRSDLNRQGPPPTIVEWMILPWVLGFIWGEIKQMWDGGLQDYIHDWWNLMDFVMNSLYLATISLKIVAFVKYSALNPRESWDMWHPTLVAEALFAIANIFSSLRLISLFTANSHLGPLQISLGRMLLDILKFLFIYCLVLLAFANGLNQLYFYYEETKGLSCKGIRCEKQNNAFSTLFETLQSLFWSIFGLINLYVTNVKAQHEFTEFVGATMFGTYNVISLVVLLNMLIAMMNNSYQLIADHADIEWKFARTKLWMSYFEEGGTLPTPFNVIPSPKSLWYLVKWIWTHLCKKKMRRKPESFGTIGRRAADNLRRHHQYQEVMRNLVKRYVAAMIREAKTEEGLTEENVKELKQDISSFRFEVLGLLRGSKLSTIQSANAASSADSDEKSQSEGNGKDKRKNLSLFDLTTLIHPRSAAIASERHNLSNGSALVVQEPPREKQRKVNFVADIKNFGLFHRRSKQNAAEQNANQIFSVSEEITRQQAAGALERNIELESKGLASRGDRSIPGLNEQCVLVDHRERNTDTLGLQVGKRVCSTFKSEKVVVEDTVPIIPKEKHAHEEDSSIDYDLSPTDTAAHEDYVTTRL

[16] = target: T5, Short transient receptor potential channel 4; experiment: block of DAMGO-driven TRPC4 calcium entry – cell-based, HEK293 TRPC4/mu-opioid, Fluo-4 calcium, dose response (AID 434942); type: functional;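 also: potency of inhibitors blocking the TRPC4 calcium response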
[17] = system: HEK293; experiment: cells; type: functional, cell-based; settings: Homo sapiens
[18] = system: HEK293; experiment: NOD2 signaling inhibitors in MDP-stimulated cells, cell-based, uHTS, luminescence (AID 2001); type: functional; settings: Homo sapiens
[19] = target: Cytochrome P450 2D6 (Homo sapiens, UniProt P10635);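 also: CYP2D6 member of a cytochrome P450 panel assay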
[20] = target: T6, Cytochrome P450 1A2 (Homo sapiens, UniProt P05177);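 also: PubChem cytochrome P450 panel assay, CYP1A2 panel member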
T6 sequence (P05177 whole entry): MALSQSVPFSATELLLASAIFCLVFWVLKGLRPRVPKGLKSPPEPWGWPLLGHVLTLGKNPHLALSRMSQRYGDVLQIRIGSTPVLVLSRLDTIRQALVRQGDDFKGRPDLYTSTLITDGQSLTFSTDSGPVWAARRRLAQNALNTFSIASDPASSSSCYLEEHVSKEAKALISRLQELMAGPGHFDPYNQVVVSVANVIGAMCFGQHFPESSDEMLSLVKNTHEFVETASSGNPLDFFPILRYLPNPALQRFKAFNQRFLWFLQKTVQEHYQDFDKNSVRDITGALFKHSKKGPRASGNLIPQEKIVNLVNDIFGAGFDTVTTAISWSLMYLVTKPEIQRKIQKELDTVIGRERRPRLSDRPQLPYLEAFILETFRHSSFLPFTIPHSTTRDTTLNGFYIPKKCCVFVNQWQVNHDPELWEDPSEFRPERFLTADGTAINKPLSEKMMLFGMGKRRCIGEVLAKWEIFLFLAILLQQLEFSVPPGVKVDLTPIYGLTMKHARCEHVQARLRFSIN

[21] = target: T7, Aminopeptidase N (Plasmodium falciparum FcB1/Columbia, UniProt O96935); experiment: malaria alanyl aminopeptidase activity blockers – biochemical, fluorogenic H-Leu-NHMec substrate, 1536-well (AID 1445); design: species or system Plasmodium falciparum 3D7, 3D7
T7 sequence (O96935 whole entry): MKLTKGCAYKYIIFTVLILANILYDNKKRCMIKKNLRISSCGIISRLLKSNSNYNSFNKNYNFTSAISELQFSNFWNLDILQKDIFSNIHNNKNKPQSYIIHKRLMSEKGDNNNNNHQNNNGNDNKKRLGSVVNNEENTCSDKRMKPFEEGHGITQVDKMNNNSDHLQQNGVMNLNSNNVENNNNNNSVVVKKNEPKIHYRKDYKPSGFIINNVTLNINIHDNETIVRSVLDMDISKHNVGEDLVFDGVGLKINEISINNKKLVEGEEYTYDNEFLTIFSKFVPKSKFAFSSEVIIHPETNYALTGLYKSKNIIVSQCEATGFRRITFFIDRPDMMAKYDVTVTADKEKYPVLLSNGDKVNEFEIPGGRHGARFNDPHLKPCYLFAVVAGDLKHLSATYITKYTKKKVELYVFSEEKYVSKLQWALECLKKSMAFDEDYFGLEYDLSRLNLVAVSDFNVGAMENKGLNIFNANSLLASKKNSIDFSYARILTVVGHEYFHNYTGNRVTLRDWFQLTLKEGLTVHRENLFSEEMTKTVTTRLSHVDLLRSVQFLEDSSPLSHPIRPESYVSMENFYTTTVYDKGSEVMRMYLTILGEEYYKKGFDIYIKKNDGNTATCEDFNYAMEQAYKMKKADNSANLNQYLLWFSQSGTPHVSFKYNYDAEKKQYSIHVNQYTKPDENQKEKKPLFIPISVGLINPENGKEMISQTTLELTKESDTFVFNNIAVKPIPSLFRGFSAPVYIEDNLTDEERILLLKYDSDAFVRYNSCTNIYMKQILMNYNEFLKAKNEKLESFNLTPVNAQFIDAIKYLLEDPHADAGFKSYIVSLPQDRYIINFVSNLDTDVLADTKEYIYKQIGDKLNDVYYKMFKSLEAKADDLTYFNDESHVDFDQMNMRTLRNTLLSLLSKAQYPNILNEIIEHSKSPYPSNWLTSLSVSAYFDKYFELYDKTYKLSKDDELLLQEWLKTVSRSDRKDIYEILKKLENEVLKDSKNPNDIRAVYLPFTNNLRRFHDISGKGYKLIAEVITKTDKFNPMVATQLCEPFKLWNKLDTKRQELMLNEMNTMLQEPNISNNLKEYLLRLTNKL

[22] = system: HEK293; experiment: cells; type: functional, cell-based; settings: Homo sapiens; remark: listed apart in the source
[23] = target: Genome polyprotein (dengue virus type 2, UniProt P29990); experiment: flavivirus cap methylation enzyme inhibition – biochemical, confirmation dose response, primary screen (AID 588689); type: functional
Genome polyprotein, sequence (P29990 2492-3391 limits assumed): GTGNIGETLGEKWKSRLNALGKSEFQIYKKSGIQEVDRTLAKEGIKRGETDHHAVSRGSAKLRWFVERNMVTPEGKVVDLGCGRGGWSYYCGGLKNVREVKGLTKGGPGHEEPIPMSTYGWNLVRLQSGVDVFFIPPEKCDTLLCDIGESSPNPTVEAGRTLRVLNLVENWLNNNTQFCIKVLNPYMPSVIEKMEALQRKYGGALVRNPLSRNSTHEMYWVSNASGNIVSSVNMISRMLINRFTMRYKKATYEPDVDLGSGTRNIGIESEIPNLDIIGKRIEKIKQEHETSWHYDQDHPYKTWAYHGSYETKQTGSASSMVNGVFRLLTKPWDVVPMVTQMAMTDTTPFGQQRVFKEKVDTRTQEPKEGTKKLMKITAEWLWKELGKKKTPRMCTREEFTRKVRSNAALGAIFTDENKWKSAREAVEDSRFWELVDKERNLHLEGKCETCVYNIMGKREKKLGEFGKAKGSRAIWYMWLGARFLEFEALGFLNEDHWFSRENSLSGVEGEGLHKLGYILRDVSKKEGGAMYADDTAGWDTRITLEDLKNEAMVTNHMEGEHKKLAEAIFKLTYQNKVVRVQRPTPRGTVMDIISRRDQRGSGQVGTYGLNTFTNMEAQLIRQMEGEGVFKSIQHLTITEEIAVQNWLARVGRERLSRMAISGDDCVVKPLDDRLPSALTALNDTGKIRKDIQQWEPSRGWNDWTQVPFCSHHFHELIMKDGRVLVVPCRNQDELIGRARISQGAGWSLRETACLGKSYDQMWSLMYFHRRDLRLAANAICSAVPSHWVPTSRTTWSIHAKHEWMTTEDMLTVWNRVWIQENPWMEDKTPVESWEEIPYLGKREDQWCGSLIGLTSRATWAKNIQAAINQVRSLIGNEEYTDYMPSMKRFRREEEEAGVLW

Glyceraldehyde-3-phosphate dehydrogenase, sequence (P04406 whole entry): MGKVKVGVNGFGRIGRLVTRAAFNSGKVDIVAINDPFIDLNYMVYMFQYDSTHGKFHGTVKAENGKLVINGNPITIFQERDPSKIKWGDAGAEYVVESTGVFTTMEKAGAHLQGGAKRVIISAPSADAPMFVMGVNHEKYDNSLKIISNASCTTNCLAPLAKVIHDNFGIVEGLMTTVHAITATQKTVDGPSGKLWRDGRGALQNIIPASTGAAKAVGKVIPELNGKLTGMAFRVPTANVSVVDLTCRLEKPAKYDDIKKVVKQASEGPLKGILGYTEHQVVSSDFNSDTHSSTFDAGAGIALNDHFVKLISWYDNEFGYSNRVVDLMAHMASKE
Cytochrome P450 2D6, sequence (P10635 whole entry): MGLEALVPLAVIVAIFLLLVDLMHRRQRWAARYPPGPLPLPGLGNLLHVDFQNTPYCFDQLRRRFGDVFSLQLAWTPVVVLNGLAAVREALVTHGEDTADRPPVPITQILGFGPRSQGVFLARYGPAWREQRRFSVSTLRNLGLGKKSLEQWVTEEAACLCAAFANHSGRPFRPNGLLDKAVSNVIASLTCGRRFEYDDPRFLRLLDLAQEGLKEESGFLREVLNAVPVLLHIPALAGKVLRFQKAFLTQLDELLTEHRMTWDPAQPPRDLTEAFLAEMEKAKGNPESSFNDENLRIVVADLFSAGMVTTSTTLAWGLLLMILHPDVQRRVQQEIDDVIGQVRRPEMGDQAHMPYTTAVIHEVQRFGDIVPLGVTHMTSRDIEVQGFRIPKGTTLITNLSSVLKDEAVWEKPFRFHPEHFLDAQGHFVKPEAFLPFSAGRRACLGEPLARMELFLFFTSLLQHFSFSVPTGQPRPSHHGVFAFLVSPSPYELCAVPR
Induced myeloid leukemia cell differentiation protein Mcl-1, sequence (Q07820 whole entry): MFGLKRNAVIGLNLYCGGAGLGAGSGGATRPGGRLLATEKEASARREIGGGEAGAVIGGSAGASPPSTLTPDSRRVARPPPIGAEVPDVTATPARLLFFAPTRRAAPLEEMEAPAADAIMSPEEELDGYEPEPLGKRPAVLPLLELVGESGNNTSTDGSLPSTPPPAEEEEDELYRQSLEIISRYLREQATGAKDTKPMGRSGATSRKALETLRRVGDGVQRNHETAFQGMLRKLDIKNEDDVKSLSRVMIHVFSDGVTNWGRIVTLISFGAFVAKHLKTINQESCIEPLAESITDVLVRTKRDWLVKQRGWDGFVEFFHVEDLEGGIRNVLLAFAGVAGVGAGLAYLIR

O=C1C(Cl)=C(N2CCOCC2)C(=O)N1c1cccc([N+](=O)[O-])c1
IC50 [1]: > 100 µM (not active) | IC50 [2]: 8.21 µM (active) | IC50 [3]: 9.68 µM (active)

COc1ccc(CCNCc2ccc(OCc3ccc(Cl)nc3)c(OC)c2)cc1OC
EC50 [4]: 0.048 µM (active) | EC50 [5]: < 0.1 µM (active) | EC50 [6]: > 60 µM (inconclusive)

O=C(O)c1ccc(N/N=C/c2ccc(OC(=O)c3cccc(Cl)c3)cc2)cc1
IC50 [7]: 3.04 µM (not active) | AC50 [8]: 3.21 µM (active) | AC50 [9]: 1.21 µM (active) | EC50 [10]: 15.5 µM (active) | AC50 [11]: 2.03 µM (active) | EC50 [12]: > 150 µM (not active) | EC50 [13]: 0.834 µM (active) | IC50 [14]: 8.08 µM (active)

CN1CCN(C2=C(Cl)C(=O)N(c3ccccc3Cl)C2=O)CC1
IC50 [1]: > 100 µM (not active) | IC50 [2]: 1.45 µM (active) | IC50 [3]: 2.16 µM (active)

COc1ccccc1/C=C/CN1CCCC(CCC(=O)NCc2ccccc2F)C1 (stereo unspecified)
EC50 [4]: 0.025 µM (active) | EC50 [15]: 0.473 µM (active) | EC50 [5]: < 0.1 µM (active) | EC50 [6]: > 60 µM (not active)

Clc1ccc(C[n+]2cc(-c3ccccc3)n3c2CCC3)cc1Cl
EC50 [4]: 0.004 µM (active) | EC50 [5]: < 0.1 µM (active) | EC50 [6]: > 30 µM (not active) | EC50 [16]: 3.76 µM (active)

CN(C)C1=C(Cl)C(=O)N(c2ccc(Cl)c(Cl)c2)C1=O
IC50 [1]: > 100 µM (not active) | IC50 [2]: 0.54 µM (active) | IC50 [3]: 0.419 µM (active)

O=S(=O)(Nc1nc(-c2sccc2Cl)cs1)c1cc(Cl)ccc1Cl
IC50 [7]: 5 µM (not active) | IC50 [17]: 17.7 µM (active) | IC50 [18]: 7.47 µM (active) | AC50 [19]: 28.2 µM (inconclusive) | AC50 [20]: 28.2 µM (inconclusive) | IC50 [21]: 44.1 µM (active) | IC50 [22]: 10.4 µM (active) | IC50 [23]: 41.6 µM (active)
